According to patent publication US9963455B2, “Pyrazolo[1,5-a]pyrimidines as antiviral compounds” (Curovir AB, priority 2014, dated 2018):

Tests used:
Type in all cases: cell-based
[1] = tested on: coxsackie B virus strain 4; test: CPE inhibition in mammalian cell culture, Cox-B4; design: inhibition: dose or concentration left out as unconfirmed; settings: read-out: antiviral effect, B4
[2] = tested on: coxsackie B virus strain 1; test: CPE inhibition in mammalian cell culture, Cox-B1; design: inhibition: dose or concentration left out as unconfirmed; settings: for inhibition at 10000 µM / inhibition / inhibition at 1000 µM: read-out: antiviral effect, B1
[3] = tested on: coxsackie B virus strain 5; test: CPE inhibition in mammalian cell culture, Cox-B5; design: inhibition: dose or concentration left out as unconfirmed; settings: read-out: antiviral effect, B5
[4] = tested on: Ljungan virus strain 145; test: CPE inhibition in mammalian cell culture, LV145; design: inhibition: dose or concentration left out as unconfirmed; settings: Parechovirus B; for inhibition: Conc.; for inhibition / inhibition at 100 µM: read-out: antiviral effect, LV145; for inhibition at 100 µM: Conc. 0.1 mM
[5] = tested on: encephalomyocarditis virus; test: CPE inhibition in mammalian cell culture, EMCV; design: inhibition: dose or concentration left out as unconfirmed; settings: Cardiovirus A, read-out: antiviral effect, EMCV; for inhibition: Conc.; for inhibition at 100 µM: Conc. 0.1 mM
[6] = tested on: Porcine Tescho virus; test: microbe, parasite or virus in culture; design: dose or concentration left out as unconfirmed; settings: Conc.; read-out: antiviral effect, PTV
[7] = tested on: Human parechovirus strain 1; test: CPE inhibition in mammalian cell culture, HPeV-1; settings: Parechovirus A, read-out: antiviral effect, HPeV-1; for inhibition at 10 µM: Conc. 10 µM; for inhibition at 100 µM: Conc. 0.1 mM
[8] = tested on: Enterovirus strain 71; test: CPE inhibition in mammalian cell culture, EV71; design: inhibition: dose or concentration left out as unconfirmed; settings: for inhibition: Conc.; for inhibition / inhibition at 100 µM: read-out: antiviral effect, EV71; for inhibition at 100 µM: Conc. 0.1 mM
[9] = tested on: Ljungan virus strain 012; test: CPE inhibition in mammalian cell culture, LV012; settings: Parechovirus B, read-out: antiviral effect, LV012; for inhibition at 10 µM: Conc. 10 µM; for inhibition at 100 µM: Conc. 0.1 mM; for inhibition at 1 µM: Conc. 1 µM
[10] = tested on: coxsackie B virus strain 2; test: CPE inhibition in mammalian cell culture, Cox-B2; design: inhibition: dose or concentration left out as unconfirmed; settings: read-out: antiviral effect, B2
[11] = tested on: Enterovirus strain 30; test: CPE inhibition in mammalian cell culture, EV30; settings: read-out: antiviral effect, EV30; for inhibition at 10 µM: Conc. 10 µM; for inhibition at 100 µM: Conc. 0.1 mM; for inhibition at 1 µM: Conc. 1 µM
[12] = tested on: polio virus strain 1; test: microbe, parasite or virus in culture; design: inhibition: dose or concentration left out as unconfirmed; settings: read-out: antiviral effect, Polio 1
[13] = tested on: Enterovirus strain 6; test: microbe, parasite or virus in culture; design: inhibition: dose or concentration left out as unconfirmed; settings: for inhibition: read-out: antiviral effect, EV6
[14] = tested on: coxsackie B virus strain 3; test: CPE inhibition in mammalian cell culture, Cox-B3; design: inhibition: dose or concentration left out as unconfirmed; settings: for inhibition at 0.01 µM: read-out: % inh.
[15] = tested on: EV68; test: CPE inhibition in mammalian cell culture, EV68; design: antiviral effect, EV68: unit of the concentration uncertain

Structure (SMILES)	inhibition at 10000 µM [1] [%]	inhibition at 10000 µM [2] [%]	inhibition at 10000 µM [3] [%]	inhibition [4] [%]	inhibition [5] [%]	inhibition [6] [%]	inhibition at 10 µM [7] [%]	inhibition [3] [%]	inhibition at 100 µM [4] [%]	inhibition at 100 µM [5] [%]	inhibition [13] [%]	inhibition ([14]; read-out: antiviral effect, B3) [%]	inhibition at 100 µM [8] [%]	inhibition at 100 µM [9] [%]	inhibition [10] [%]	inhibition at 100 µM [11] [%]	inhibition [12] [%]	inhibition [1] [%]	inhibition [2] [%]	antiviral effect, EV68 ([15]; Conc. 0.1 (unit uncertain)) [%]	other results
COc1ccc(-c2c(C)nn3c(NCc4ccc(C)cc4)cc(C)nc23)cc1OC [Ex. 6, 3-(3,4-dimethoxyphenyl)-2,5-dimethyl-N-(p-tolylmethyl)pyrazolo[1,5-a]pyrimidin-7-amine]	69	35	54	63	0	62	60	–	–	–	–	–	–	–	–	–	–	–	–	–	inhibition at 5 µM ([4]; LV145, Conc. 5.0 μM): 56%; inhibition [8]: 37%; inhibition at 10 µM [9]: 28%; inhibition at 10000 µM [10]: 82%; inhibition at 10 µM [11]: 44%; inhibition at 10000 µM [12]: 19%
COc1ccc(-c2cnn3c(NCc4cccc(S(C)(=O)=O)c4)cc(C)nc23)cc1OC [Ex. 101, 3-(3,4-dimethoxyphenyl)-5-methyl-N-[(3-methylsulfonylphenyl)methyl]pyrazolo[1,5-a]pyrimidin-7-amine]	–	–	–	–	–	–	–	29	0	0	44	90	99	0	99	89	100	–	–	–	inhibition at 0.1 µM ([8]; EV71, Conc. 0.1 μM): 99%
CC(C)c1cc(NCc2ccccc2)n2ncc(-c3ccccc3)c2n1 [Ex. 4, N-benzyl-5-isopropyl-3-phenyl-pyrazolo[1,5-a]pyrimidin-7-amine]	53	36	0	61	81	87	7	–	–	–	–	–	–	–	–	–	–	–	–	–	inhibition at 10000 µM ([14]; read-out: antiviral effect, B3): 0%; inhibition [8]: 69%; inhibition at 2.5 µM ([8]; EV71, Conc. 2.5 μM): 46%; inhibition at 10 µM [9]: 28%; inhibition at 10000 µM [10]: 0%; inhibition at 10 µM [11]: 0%; inhibition at 10000 µM [12]: 17%
COc1ccc(CNc2cc(C)nc3c(-c4ccc(OC)c(OC)c4)c(C)nn23)cn1 [Ex. 79, 3-(3,4-dimethoxyphenyl)-N-[(6-methoxy-3-pyridyl)methyl]-2,5-dimethyl-pyrazolo[1,5-a]pyrimidin-7-amine]	–	–	–	–	–	–	–	98	0	0	0	87	88	0	84	10	79	78	88	46	inhibition at 1 µM ([15]; EV68, Conc. 1 μM): 51%; inhibition at 100 µM [7]: 0%
COc1ccc(-c2c(C)nn3c(NCC(C)c4ccccc4)cc(C)nc23)cc1OC (stereo not drawn) [Ex. 10, 3-(3,4-dimethoxyphenyl)-2,5-dimethyl-N-(2-phenylpropyl)pyrazolo[1,5-a]pyrimidin-7-amine]	94	79	92	41	25	43	3	–	–	–	–	–	–	–	–	–	–	–	–	–	inhibition at 2.5 µM ([4]; LV145, Conc. 2.5 μM): 69%; inhibition [8]: 58%; inhibition at 10 µM [9]: 0%; inhibition at 10000 µM [10]: 97%; inhibition at 10 µM [11]: 88%
COc1ccc(-c2c(C)nn3c(NCc4ccc(O)cc4)cc(C)nc23)cc1OC [Ex. 81, 4-[[[3-(3,4-dimethoxyphenyl)-2,5-dimethyl-pyrazolo[1,5-a]pyrimidin-7-yl]amino]methyl]phenol]	–	–	–	–	–	–	–	81	0	0	62	87	86	0	88	97	89	77	85	29	inhibition at 0.01 µM ([2]; read-out: % inh.): 76%; inhibition at 100 µM [7]: 0%
COc1ccc(-c2c(C)nn3c(NCc4ccc(F)cc4)cc(C(C)C)nc23)cc1OC [Ex. 111, 3-(3,4-dimethoxyphenyl)-N-[(4-fluorophenyl)methyl]-5-isopropyl-2-methyl-pyrazolo[1,5-a]pyrimidin-7-amine]	–	–	–	–	–	–	–	–	–	–	–	–	–	–	–	–	–	–	–	–	inhibition at 1000 µM [1]: 98%; inhibition at 0.1 µM ([2]; read-out: % inh.): 68%; inhibition at 1000 µM [2]: 97%; inhibition at 1000 µM [3]: 99%; antiviral effect, EV68 ([15]; Conc. 1 (unit uncertain)): 40%; inhibition at 1000 µM ([14]; read-out: antiviral effect, B3): 100%; inhibition at 1 µM [9]: 0%; inhibition at 1000 µM [10]: 96%; inhibition at 1 µM [11]: 80%; inhibition at 1000 µM [12]: 100%
COc1ccc(-c2c(C)nn3c(NCc4ccncc4)cc(C)nc23)cc1OC [Ex. 75, 3-(3,4-dimethoxyphenyl)-2,5-dimethyl-N-(4-pyridylmethyl)pyrazolo[1,5-a]pyrimidin-7-amine]	–	–	–	–	–	–	–	98	0	0	90	89	85	0	100	100	100	100	100	31	inhibition at 100 µM [7]: 0%; inhibition at 0.01 µM [14]: 85%
COc1ccc(-c2c(C)nn3c(NCc4ccc(NS(C)(=O)=O)cc4)cc(C)nc23)cc1OC [Ex. 80, N-[4-[[[3-(3,4-dimethoxyphenyl)-2,5-dimethyl-pyrazolo[1,5-a]pyrimidin-7-yl]amino]methyl]phenyl]methanesulfonamide]	–	–	–	–	–	–	–	–	–	–	–	–	–	–	–	–	–	–	–	–	inhibition at 1000 µM [1]: 78%; inhibition at 1000 µM [2]: 78%; inhibition at 1000 µM [3]: 97%; inhibition at 1 µM ([13]; read-out: % inh.): 93%; antiviral effect, EV68 ([15]; Conc. 1 (unit uncertain)): 30%; inhibition at 1 µM ([7]; Conc. 1 µM): 0%; inhibition at 1000 µM ([14]; read-out: antiviral effect, B3): 78%; inhibition at 1 µM [9]: 0%; inhibition at 1000 µM [10]: 96%; inhibition at 1 µM [11]: 90%; inhibition at 1000 µM [12]: 85%
COc1ccc(-c2c(C)nn3c(NCc4cccc(S(C)(=O)=O)c4)cc(C)nc23)cc1OC [Ex. 82, 3-(3,4-dimethoxyphenyl)-2,5-dimethyl-N-[(3-methylsulfonylphenyl)methyl]pyrazolo[1,5-a]pyrimidin-7-amine]	–	–	–	–	–	–	–	89	0	0	89	91	–	0	98	94	100	100	95	24	inhibition at 0.01 µM [14]: 82%
